Experimental data from patent publication US10562895B2, “Pyrroloquinoline quinone B crystal form and preparation method therefor” (ZHUCHENG HAOTIAN PHARM CO., LTD, priority 2015, dated 2020).

Test: hygroscopicity analysis (DVS)
Assay type: physicochemical
Text: The crystal form B of pyrroloquinoline quinone provided by the present invention is characterized by solid-state methods, such as an X-ray powder diffraction (XRPD), a thermogravimetric analysis (TG), a differential scanning calorimetry analysis (DSC), an infrared (IR) analysis, and a hygroscopicity analysis (DVS). A solid sample of the crystal form B of pyrroloquinoline quinone obtained in Example 1 was subjected to a hygroscopicity analysis.

For O=C(O)c1cc(C(=O)O)c2c(n1)C(=O)C(=O)c1cc(C(=O)O)[nH]c1-2 [4,5-Dihydro-4,5-dioxo-1H-pyrrolo[2,3-f]quinoline-2,7,9-tricarboxylic acid], the “water adsorption / solid form change” value (at a relative humidity of 85-95%, FIG. 5) was “adsorbed a molecule of water and was converted into a monohydrate compound” and the hygroscopicity (solid sample obtained in Example 1, FIG. 5) was “low hygroscopicity”.
